In patent US20200325177A1, “METHODS OF MAKING STREPTOGRAMIN COMPOSITIONS AND THE USE THEREOF” (THE REGENTS OF THE UNIVERSITY OF CALIFORNIA, priority 2017, published 2020):
Converted amounts (≈) assume the structure as drawn. Where two headings read alike, the source gives them in different places.

Experiments:
Format in all cases: cell-based
[1] = test system: P. aeruginosa MDR clinical isolate; test: MIC, Gram-negative bacteria: P. aeruginosa MDR clinical isolate; conditions: Pseudomonas aeruginosa, read-out: Minimal Inhibitory Concentration (MIC) P. aeruginosa MDR clinical isolate
[2] = test system: S. aureus Linezolid-resistant; cfr; test: MIC, Gram-positive bacteria: S. aureus Linezolid-resistant; cfr; conditions: Staphylococcus aureus, column 9, read-out: Minimal Inhibitory Concentration (MIC) S. aureus Linezolid-resistant
H. influenzae ATCC 49247 = test: MIC, Gram-negative bacteria: H. influenzae ATCC 49247; conditions: Haemophilus influenzae, ATCC49247, read-out: Minimal Inhibitory Concentration (MIC) H. influenzae ATCC 49247
[3] = test system: S. aureus Vat A streptogramin; test: MIC, Gram-positive bacteria: S. aureus Vat A streptogramin; conditions: Staphylococcus aureus; Gram-positive; column 5; read-out: Minimal Inhibitory Concentration (MIC) S. aureus Vat A streptogramin
Gram-Negative Organisms = test: microbe, parasite or virus in culture
E. faecalis = test: MIC, Gram-positive bacteria: E. faecalis; conditions: Enterococcus faecalis, column 1, read-out: Minimal Inhibitory Concentration (MIC) E. faecalis
E. faecium VRE; vanA = test: MIC, Gram-positive bacteria: E. faecium VRE; vanA; conditions: Enterococcus faecium, column 3, read-out: Minimal Inhibitory Concentration (MIC) E. faecium VRE
[4] = test system: K. pneumoniae multidrug-resistant; test: MIC, Gram-negative bacteria: K. pneumoniae multidrug-resistant; conditions: Klebsiella pneumoniae, read-out: Minimal Inhibitory Concentration (MIC) K. pneumoniae multidrug-resistant
S. pneumoniae = test: MIC, Gram-positive bacteria: S. pneumoniae; conditions: Streptococcus pneumoniae, column 10, read-out: Minimal Inhibitory Concentration (MIC) S. pneumoniae
P. aeruginosa ATCC 27853 = test: MIC, Gram-negative bacteria: P. aeruginosa ATCC 27853; conditions: Pseudomonas aeruginosa, ATCC27853, read-out: Minimal Inhibitory Concentration (MIC) P. aeruginosa ATCC 27853
S. aureus = test: MIC, Gram-positive bacteria: S. aureus (strains not named); conditions: Staphylococcus aureus, read-out: Minimal Inhibitory Concentration (MIC) S. aureus
E. faecium ATCC 35667 = test: MIC, Gram-positive bacteria: E. faecium ATCC 35667; conditions: Enterococcus faecium, ATCC35667, column 2, read-out: Minimal Inhibitory Concentration (MIC) E. faecium ATCC 35667
[5] = Acinetobacter baumannii, ATCC19606, read-out: Minimal Inhibitory Concentration (MIC), A. baumannii ATCC 19606
[6] = Escherichia coli, ATCC25922, read-out: Minimal Inhibitory Concentration (MIC), E. coli ATCC 25922
[7] = Escherichia coli, read-out: Minimal Inhibitory Concentration (MIC), E. coli BAS2006, OMP C, OMP F
[8] = Escherichia coli, read-out: Minimal Inhibitory Concentration (MIC), E. coli olC efflux defective
[9] = Escherichia coli, read-out: Minimal Inhibitory Concentration (MIC), E. coli permeability mutant BAS1314, IMP4213ZAB::TN10
[10] = Klebsiella pneumoniae, ATCC43816, read-out: Minimal Inhibitory Concentration (MIC), K. pneumoniae ATCC 43816
[11] = first unnamed S. aureus column (c4)
[12] = fourth unnamed S. aureus column (c8)
[13] = second unnamed S. aureus column (c6)
[14] = third unnamed S. aureus column (c7)
[15] = Escherichia coli, read-out: Minimal Inhibitory Concentration (MIC), E. coli ΔompC768, KanR insert

Structure (SMILES)	MIC [1] [µg/mL]	MIC [2] [µg/mL]	MIC (H. influenzae ATCC 49247) [µg/mL]	MIC [3] [µg/mL]	MIC (Gram-Negative Organisms; [5]) [µg/mL]	MIC (Gram-Negative Organisms; [6]) [µg/mL]	MIC (Gram-Negative Organisms; [7]) [µg/mL]	MIC (Gram-Negative Organisms; [8]) [µg/mL]	MIC (Gram-Negative Organisms; [9]) [µg/mL]	MIC (Gram-Negative Organisms; [10]) [µg/mL]	MIC (E. faecalis) [µg/mL]	MIC (E. faecium VRE; vanA) [µg/mL]	MIC [4] [µg/mL]	MIC (S. pneumoniae) [µg/mL]	MIC (P. aeruginosa ATCC 27853) [µg/mL]	MIC (S. aureus; [11]) [µg/mL]	MIC (S. aureus; [12]) [µg/mL]	MIC (S. aureus; [13]) [µg/mL]	MIC (S. aureus; [14]) [µg/mL]	MIC (E. faecium ATCC 35667) [µg/mL]	other results
CC1=C\[C@@H](O)CC(=O)Cc2nc(co2)C(=O)N2CCC[C@@H]2C(=O)O[C@H]([C@@H](C)COC(=O)Nc2cc3ccccc3cn2)[C@H](C)/C=C/C(=O)NC\C=C\1 [SA0110118]	> 64	> 64	> 64	> 64	> 64	> 64	8 (≈ 11.2 µM)	2 (≈ 2.8 µM)	2 (≈ 2.8 µM)	> 64	> 64	16 (≈ 22.4 µM)	> 64	2 (≈ 2.8 µM)	> 64	8 (≈ 11.2 µM)	8 (≈ 11.2 µM)	8 (≈ 11.2 µM)	16 (≈ 22.4 µM)	4 (≈ 5.6 µM)	–
CC1=C\[C@@H](O)CC(=O)Cc2nc(co2)C(=O)N2CCC[C@@H]2C(=O)O[C@H]([C@@H](C)CN2CCN(C)CC2)[C@H](C)/C=C/C(=O)NC\C=C\1 [SA0110241]	> 64	> 64	> 64	> 64	> 64	> 64	> 64	> 64	> 64	> 64	> 64	> 64	> 64	> 64	> 64	> 64	> 64	> 64	> 64	> 64	MIC (Gram-Negative Organisms; [15]): > 64 µg/mL
CC1=C\[C@@H](O)CC(=O)Cc2nc(co2)C(=O)N2CCC[C@@H]2C(=O)O[C@H]([C@@H](C)COC(=O)Nc2ccc(Br)nc2)[C@H](C)/C=C/C(=O)NC\C=C\1 [SA0110082]	> 64	> 64	64 (≈ 86.2 µM)	> 64	> 64	> 64	32 (≈ 43.1 µM)	4 (≈ 5.39 µM)	16 (≈ 21.5 µM)	> 64	> 64	> 64	> 64	8 (≈ 10.8 µM)	> 64	> 64	32 (≈ 43.1 µM)	> 64	> 64	32 (≈ 43.1 µM)	–
CC1=C\[C@@H](O)CC(=O)Cc2nc(co2)C(=O)N[C@H](Cc2c[nH]c3ccccc23)C(=O)O[C@H](C(C)C)[C@H](C)/C=C/C(=O)NC\C=C\1 [SA0202089]	> 64	> 64	> 64	64 (≈ 104 µM)	> 64	> 64	32 (≈ 51.9 µM)	16 (≈ 25.9 µM)	8 (≈ 13 µM)	> 64	> 64	32 (≈ 51.9 µM)	> 64	32 (≈ 51.9 µM)	> 64	32 (≈ 51.9 µM)	32 (≈ 51.9 µM)	32 (≈ 51.9 µM)	32 (≈ 51.9 µM)	32 (≈ 51.9 µM)	–
CC1=C\[C@@H](O)C[C@@H](O)Cc2nc(co2)C(=O)N[C@H](C)C(=O)O[C@H](C(C)C)[C@H](C)/C=C/C(=O)NC\C=C\1 [madumycin II, Madumycin II, reference compound]	> 64	> 64	1 (≈ 1.99 µM)	> 64	> 64	> 64	1 (≈ 1.99 µM)	2 (≈ 3.97 µM)	0.5 (≈ 0.993 µM)	> 64	> 64	8 (≈ 15.9 µM)	> 64	4 (≈ 7.94 µM)	> 64	8 (≈ 15.9 µM)	8 (≈ 15.9 µM)	8 (≈ 15.9 µM)	16 (≈ 31.8 µM)	0.5 (≈ 0.993 µM)	–
CC1=C\[C@@H](O)CC(N)Cc2nc(cs2)C(=O)N2CCC[C@@H]2C(=O)O[C@H](C(C)C)[C@H](C)/C=C/C(=O)NC\C=C\1 (stereo partly shown) [SA0110268]	> 64	> 64	64 (≈ 117 µM)	> 64	> 64	> 64	16 (≈ 29.4 µM)	2 (≈ 3.67 µM)	2 (≈ 3.67 µM)	> 64	> 64	> 64	> 64	32 (≈ 58.7 µM)	> 64	> 64	> 64	> 64	> 64	64 (≈ 117 µM)	MIC (Gram-Negative Organisms; [15]): > 64 µg/mL
CC1=C\[C@@H](O)CC(=O)Cc2nc(co2)C(=O)N2CCC[C@@H]2C(=O)O[C@H]([C@@H](C)COC(=O)Nc2ccccc2)[C@H](C)/C=C/C(=O)NC\C=C\1 [SA0110043]	> 64	> 64	32 (≈ 48.3 µM)	> 64	> 64	> 64	16 (≈ 24.1 µM)	2 (≈ 3.02 µM)	8 (≈ 12.1 µM)	> 64	> 64	64 (≈ 96.6 µM)	> 64	16 (≈ 24.1 µM)	> 64	32 (≈ 48.3 µM)	32 (≈ 48.3 µM)	32 (≈ 48.3 µM)	64 (≈ 96.6 µM)	16 (≈ 24.1 µM)	–
